Results taken from patent publication US5628979A, “Reagent for tumor imaging and therapy” (Antisoma Limited, priority 1991, dated 1997).
pIC50: −log10 of the molar value. Read-outs that look alike come from different tables or passages of the source. Where no end group is shown, it is not given here.

Tests used:
[1] = system: activated platelets; settings: Kloczewiak et al, cited from earlier work
[2] = system: tumor associated LDV binding sites; assay: Binding to tumor associated LDV binding sites / tumor cells in vivo; transportation and clearance; set-up: species or system nude mice; settings: in words
Description: (§1) In vivo experiments were performed in nude mice bearing HEp-2 and HT29 tumors obtained by injecting the nude mice subcutaneously in both flanks with from 2 to 5×10^6 HEp-2 and HT29 tumor cells and the tumors allowed to grow for three weeks.
(§2) In these experiments the nude tumor bearing mice divided into five groups were each injected subcutaneously with the ^125 I-labelled peptide
(§3) ^125 I-YGGLDVGLDVGGY (SEQ ID NO. 2).
(§4) (SEQ ID No. 2), and the uptake of labelled peptide measured against time. For this purpose the five groups were killed at intervals of 5 minutes, 30 minutes, 1 hour, 3 hours, and 6 hours after injection. At this time the blood and tumors were separately removed, weighed and counted for radioactivity, as well as samples taken from all major organs. […] At this point peptide uptake was 10.3% id per gram in blood, 4.5% id per gram in HEp-2 tumor and 3.0% id per gram in HT29 tumor.

[3] = system: VLA-4; settings: in words; expressed in vitro by tumour cells and resting CD4+ T-cells; see Shimizu et al; cited from earlier work
[4] = system: HEp-2 tumor; assay: In vivo uptake of 125I-labelled peptide in HEp-2 tumor borne by nude mice (Experiment 2); settings: 5 minutes after subcutaneous injection
Description: as §1, §2, §3, §4

[5] = system: HT29 tumor; assay: In vivo uptake of 125I-labelled peptide in HT29 tumor borne by nude mice (Experiment 2); settings: 5 minutes after subcutaneous injection
Description: as §1, §2, §3, §4

[6] = In vivo uptake of 125I-labelled peptide in blood of tumor-bearing nude mice (Experiment 2); settings: 5 minutes after subcutaneous injection; nude mice bearing HEp-2 and HT29 tumors
Description: as §1, §2, §3, §4

HHLQLLKQLLDV [synthetic dodecapeptide, analogue of the γ400-411 residue, containing the LDV triplet (Kloczewiak et al)]
pIC50 ([1]; Biochemistry 1989, read-out: concentration for 50% inhibition of fibrinogen binding to activated platelets): < 3.30 | pIC50 ([1]; as restated, read-out: concentration necessary to obtain 50% inhibition of fibronectin binding to activated platelets): < 3.30

CS1 sequence of fibronectin: 25-unit oligopeptide having the sequence SEQ ID No. 1 (DELPQLVTLPHPLLHGPEILDVPST)
binding to tumor cells in vivo [2]: bind strongly to tumor cells in vivo | binding to VLA-4 [3]: known to bind to the cell adhesion molecule (CAM) VLA-4

^125 I-YGGLDVGLDVGGY: radio-labelled thirteen unit peptide YGGLDVGLDVGGY labelled with 125I (also: 125I radiolabel, position not given here)
peptide uptake in HEp-2 tumor [4]: 4.5 % id per gram | peptide uptake in HT29 tumor [5]: 3.0 % id per gram | peptide uptake in blood [6]: 10.3 % id per gram
